# Experimental data: PMC10398685 (ACS Omega, 2023)
# Entries after “also recorded” stand apart in the source; their conditions may differ.
# Key:
# CCRF-CEM cells = assay: Steady-state intracellular uptake in CCRF-CEM cells; type: in vitro ADME; conditions: 60 min incubation, 50 μM at t = 0
# Excerpt: (§1) While an enzymatic MTase assay represents a valuable fast screening platform providing the information that can be directly used for SAR analyses, it is not fully predictive for the compounds’ activity in whole cells. In order to verify the ability of the compounds to reach the intracellular compartment, we measured the steady-state accumulation of representative compounds in intact CCRF-CEM, VERO-E6, and Calu-3 cells (Tables 3 and S2). […] Compound 12q was almost completely cleared from the medium after 60 min incubation with the cells rendering it among the most permeable compounds of the series based on Kp values. It should be noted that the apparent intracellular concentration of the compounds may be biased by their potential metabolism. Therefore, we decided to subject the selected derivatives to in vitro stability studies. […]
# (§2) 3.3. Intracellular Uptake
# (§3) Steady-state cellular uptake was measured in CCRF-CEM cells (ATCC, CRL-119), VERO-E6 cells (ATCC, CRL-1586) and Calu-3 cells (HTB-55), respectively. Suspension cells (CCRF-CEM) were treated as follows: Prior to the experiment, cells were washed by centrifugation (250 x g, 5 min) in prewarmed (37 °C) serum-free RPMI medium and resuspended in the same vehicle to a concentration of 2 x 10^7 cells per mL. The cell suspension was distributed into the microtubes in 500 μL aliquots (10^7 cells), and the uptake process was initiated by the addition of 2.5 μL of the 10 mM DMSO solutions of the compounds (50 μM final conc.). Samples were incubated for 60 min at 37 °C in a CO 2 incubator using a rotary stirrer. The uptake was terminated by centrifugation at 900 x g for 5 min, at +4 °C. The medium was stored at −20 °C for later analysis of the extracellular concentration of the compounds. The cells were washed two times with 1 mL PBS (900 x g, 5 min, +4 °C), and also stored at −20 °C for subsequent analysis of the intracellular concentration of the compounds. At the day of the analysis, both media and the pelleted cells were quickly thawed. The cell pellets were extracted with 200 μL of ice-cold methanol by vigorous shaking, further diluted 1:1 with water and centrifuged at 20 000 x g for 10 min. As for the media samples, 10 μL aliquots were extracted with 990 μL of 50% methanol. The samples were then transferred to ECHO® -compatible 384-well plates and the amount of analytes were quantified by the ECHO -MS® System (Sciex) where acoustic droplet ejection module is coupled with Sciex 6500® triple quadrupole mass spectrometer operating with an electrospray ionization source. Spectrometer was run in the multiple reaction monitoring (MRM) mode. When necessary, the processed samples were further diluted in 50% methanol to fit in the calibration range. Calibration curves of the compounds in 50% methanol were measured alongside the samples within the same run. The ra tio between the total compound concentration in the cells and compound concentration in the medium (K p) at t=60 min was calculated according to: Kp = (Acell / Vcell) / Cmedium, where Acell is the amount of compound in the cell lysate, Vcell is the CCRF-CEM cell volume (3.38 μL/10^7 cells)16 and Cmedium is the compound concentration in the medium sample after correcting for sample dilution. Experiments were performed in duplicates. […]
# [1] = Steady-state intracellular uptake in VERO-E6 cells; type: in vitro ADME; conditions: African green monkey, VERO-E6 cells; VERO-E6, 60 min incubation, 50 μM at t = 0; read-out: Kp (intracellular accumulation ratio IC/EC)
# Excerpt: as §1, §2
# (§4) Steady-state cellular uptake was measured in CCRF-CEM cells (ATCC, CRL-119), VERO-E6 cells (ATCC, CRL-1586) and Calu-3 cells (HTB-55), respectively. […]
# (§5) The medium was stored at −20 °C […]
# (§6) for later analysis of the extracellular concentration of the compounds. The cells were washed two times with 1 mL PBS (900 x g, 5 min, +4 °C), and also stored at −20 °C for subsequent analysis of the intracellular concentration of the compounds. At the day of the analysis, both media and the pelleted cells were quickly thawed. The cell pellets were extracted with 200 μL of ice-cold methanol by vigorous shaking, further diluted 1:1 with water and centrifuged at 20 000 x g for 10 min. As for the media samples, 10 μL aliquots were extracted with 990 μL of 50% methanol. The samples were then transferred to ECHO® -compatible 384-well plates and the amount of analytes were quantified by the ECHO -MS® System (Sciex) where acoustic droplet ejection module is coupled with Sciex 6500® triple quadrupole mass spectrometer operating with an electrospray ionization source. Spectrometer was run in the multiple reaction monitoring (MRM) mode. When necessary, the processed samples were further diluted in 50% methanol to fit in the calibration range. Calibration curves of the compounds in 50% methanol were measured alongside the samples within the same run. The ra tio between the total compound concentration in the cells and compound concentration in the medium (K p) at t=60 min was calculated according to: Kp = (Acell / Vcell) / Cmedium, where Acell is the amount of compound in the cell lysate, Vcell is the CCRF-CEM cell volume (3.38 μL/10^7 cells)16 and Cmedium is the compound concentration in the medium sample after correcting for sample dilution. Experiments were performed in duplicates.
# (§7) For adherent cells (Vero E6 and Calu-3), the workflow was modified as follows: Cells were seeded on 6-well plates at a concentration of […] and 8.2 x 10^5 cells/well for Vero E6 and Calu-3, respectively, in 3 mL of serum-free culture media. The cells were left to attach overnight, the medium was then aspirated and replenished with 2 mL of fresh media containing the compounds (50 µM final conc). After 60 min at 37 °C the media was aspirated and the cells were washed twice with 1 mL of PBS. Then, 1 mL of fresh PBS was added and the cells were subjected to three freeze-thaw cycles and further diluted with 1:1 with MeOH. The cell lysates and the media were further processed as described above. Intracellular volume of Vero E6 and Calu-3 cells (8.6 and 14 μL/107 cells, respectively) was calculated from their diameter determined by cell counter (Luna FL) while in suspension (following the trypsinization) assuming the homogenous spheres.
# VERO-E6 cells = assay: Steady-state intracellular uptake in VERO-E6 cells; type: in vitro ADME; conditions: VERO-E6, 60 min incubation, 50 μM at t = 0
# Excerpt: as §1, §2, §4, §5, §6, §7
# Plasma stability, mouse = type: in vitro ADME; conditions: 5uM, triplicates
# [2] = Microsomal stability, mouse; type: in vitro ADME; conditions: triplicates; for Microsomal stability Rem. at 45 min / Microsomal stability T1/2: 0.5 mg/ml mouse microsomes, 5uM; for microsomal CLint at 5 µM / half-life at 5 µM: pH 7.4, 0.5 mg/ml mouse microsomes; for half-life at 5 µM: read-out: Microsomal stability T1/2
# SARS-CoV-2 = assay: microbe, parasite or virus in culture; type: cell-based; conditions: Severe acute respiratory syndrome coronavirus 2, Vero C1008, 72 h; VeroE6 cells, MOI~0.03, 3 days incubation, CPE by XTT; read-out: EC50 (anti-SARS-CoV-2 activity)
# in vitro = conditions: human
# [3] = Steady-state intracellular uptake in CCRF-CEM cells; type: in vitro ADME; conditions: human, CCRF-CEM cells, 60 min incubation, 50 μM at t = 0, read-out: Kp (intracellular accumulation ratio IC/EC)
# Excerpt: as §1, §2, §3
Structure (SMILES),EC (extracellular concentration in the media at t = 60 min) ± sd (CCRF-CEM cells) [µM],"Kp at 1 h, 50 µM [1]",EC (extracellular concentration in the media at t = 60 min) ± sd (VERO-E6 cells) [µM],"Plasma stability Rem. at 120 min (Plasma stability, mouse) [%]","Plasma stability T1/2 (Plasma stability, mouse)",Microsomal stability Rem. at 45 min [2] [%],Microsomal stability T1/2 [2],EC50 (SARS-CoV-2) [µM],CC50 at 3 days (in vitro) [µM],"Kp at 1 h, 50 µM [3]",microsomal CLint at 5 µM [2] [µL/min/mg],half-life at 5 µM [2] [min],IC (intracellular concentration in the cells at t = 60 min) ± sd (VERO-E6 cells),IC (intracellular concentration in the cells at t = 60 min) ± sd (CCRF-CEM cells)
CCN(C[C@H]1O[C@@H](n2cc(C#Cc3cnc4ccccc4c3)c3c(N)ncnc32)[C@H](O)[C@@H]1O)S(=O)(=O)c1ccc(OC)c(C#N)c1 [Compound 12e],0.2 ± 0.0,608,16.5 ± 3.6,120.8 ± 10.5,Stable,79.3 ± 3.8,Stable,> 100,> 100,,,,,
CCN(C[C@H]1O[C@@H](n2cc(C#Cc3cccnc3)c3c(N)ncnc32)[C@H](O)[C@@H]1O)S(=O)(=O)c1ccc(OC)c(C#N)c1 [Compound 12l],29 ± 0,225,17.1 ± 2.9,109.9 ± 1.0,Stable,37.4 ± 0.5,,> 100,> 100,163,40.9 ± 0.8,33.7 ± 0.7,,
COc1ccc(S(=O)(=O)N(C)C[C@H]2O[C@@H](n3cc(C#Cc4cnc5ccccc5c4)c4c(N)ncnc43)[C@H](O)[C@@H]2O)cc1C#N [Compound 12q],0.6 ± 0.1,,0.1 ± 0.1,113.2 ± 3.7,Stable,101.0 ± 3.4,Stable; also recorded: excellent stability,> 100,> 100,5320,,,"18,533 ± 7709 μM",
COc1ccc(S(=O)(=O)N(C)C[C@H]2O[C@@H](n3cc(C#Cc4ccc(C(N)=O)cc4)c4c(N)ncnc43)[C@H](O)[C@@H]2O)cc1C#N [Compound 12r],12 ± 6,,1.1 ± 0.5,113.5 ± 6.0,Stable,80.9 ± 12.0,Stable; also recorded: excellent stability,> 100,> 100,897,,,"19,777 ± 7485 μM","10,708 ± 358 μM"
COc1ccc(S(=O)(=O)N(C)C[C@H]2O[C@@H](n3cc(C#Cc4cccnc4)c4c(N)ncnc43)[C@H](O)[C@@H]2O)cc1C#N [Compound 12s],15 ± 3,5210,2.6 ± 2.3,102.7 ± 3.4,Stable,50.2 ± 3.2,,> 100,> 100,604,30.5 ± 4.7,50.8 ± 5.1,"13,578 ± 3626 μM",
CCN(C[C@H]1O[C@@H](n2cc(C#Cc3nc4ccccc4[nH]3)c3c(N)ncnc32)[C@H](O)[C@@H]1O)S(=O)(=O)c1ccc(OC)c(C#N)c1 [Compound 12a],34 ± 0,822,42 ± 3.2,119.2 ± 6.0,Stable,48.7 ± 3.2,,> 100,> 100,188,32.6 ± 2.1,44.1 ± 2.7,,
CCN(C[C@H]1O[C@@H](n2cc(C#Cc3ccc(N)nc3)c3c(N)ncnc32)[C@H](O)[C@@H]1O)S(=O)(=O)c1ccc(OC)c(C#N)c1 [Compound 12h],14 ± 1,885,19.5 ± 2.0,108.2 ± 4.2,Stable,43.0 ± 0.8,,> 100,> 100,480,37.8 ± 1.8,37.3 ± 1.8,,
